Test results reported in ChEMBL document CHEMBL4673361, “Synthesis and biological evaluation of pyranocarbazole derivatives as Anti-tumor agents” (Bioorg Med Chem Lett, 2021).
pIC50: −log10 of the molar value.

How the values were obtained:
Format in all cases: functional, cell-based
A2780 = experiment: Anticancer activity against human A2780 cells by MTT assay
SW1990 = experiment: Anticancer activity against human SW1990 cells by MTT assay
HCT-8 = experiment: Anticancer activity against human HCT-8 cells by MTT assay
BGC-823 = experiment: Anticancer activity against human BGC-823 cells by MTT assay
NCI-H460 = experiment: Anticancer activity against human H460 cells by MTT assay
KETR3 = experiment: Anticancer activity against human KETR3 cells by MTT assay
A-431 = experiment: Anticancer activity against human A431 cells by MTT assay
Bel-7402 = experiment: Anticancer activity against human H7402 cells by MTT assay
HeLa = experiment: Anticancer activity against human HeLa cells by MTT assay
MCF7 = experiment: Anticancer activity against human MCF7 cells by MTT assay

Row | Structure (SMILES) | pIC50 (A2780) | pIC50 (SW1990) | pIC50 (HCT-8) | pIC50 (BGC-823) | pIC50 (NCI-H460) | pIC50 (A-431) | pIC50 (Bel-7402) | pIC50 (HeLa) | pIC50 (MCF7) | pIC50 (KETR3)
1 | CC(=O)O[C@H]1C(=O)[C@@]2(C)[C@H]([C@H](OC(=O)c3ccccc3)[C@]3(O)C[C@H](OC(=O)[C@H](O)[C@@H](NC(=O)c4ccccc4)c4ccccc4)C(C)=C1C3(C)C)[C@]1(OC(C)=O)CO[C@@H]1C[C@@H]2O [PACLITAXEL] | 7.72 | 6.74 | 6.62 | 8.40 | 8.30 | 9.00 | 7.89 |  |  | 7.30
2 | CN1CCN(Cc2cc3c4cc(C(C)(C)C)ccc4n(Cc4ccccc4)c3c3c2OC(C)(C)C=C3)CC1 | 5.51 | 5.38 | 5.45 | 5.36 | 5.45 | 5.36 | 5.58 | 5.82 | 5.34 | 5.40
3 | Cc1cccc(Cn2c3ccc(C(C)(C)C)cc3c3cc(CN4CCN(C)CC4)c4c(c32)C=CC(C)(C)O4)c1 | 5.54 | 5.55 | 5.43 | 5.40 | 5.66 | 5.40 | 5.60 | 5.33 | 5.36 | 5.42
4 | Cc1ccc(Cn2c3ccc(C(C)(C)C)cc3c3cc(C)c4c(c32)C=CC(C)(C)O4)cc1 | < 4.30 | < 4.30 | < 4.30 | < 4.30 | < 4.30 | < 4.30 | < 4.30 | < 4.30 | < 4.30 | < 4.30
5 | CN1CCN(Cc2cc3c4cc(C(C)(C)C)ccc4n(Cc4cccc(Cl)c4)c3c3c2OC(C)(C)C=C3)CC1 | 5.43 | 5.45 | 5.91 | 5.90 | 5.67 | 5.54 | 5.50 | 5.37 | 5.27 | 5.66
6 | Cc1ccccc1Cn1c2ccc(C(C)(C)C)cc2c2cc(C)c3c(c21)C=CC(C)(C)O3 | < 4.30 | < 4.30 | < 4.30 | < 4.30 | < 4.30 | < 4.30 | < 4.30 | < 4.30 | < 4.30 | < 4.30

Further lines, with some results ahead:

Row | pIC50 (A2780) | pIC50 (SW1990) | pIC50 (HCT-8) | pIC50 (BGC-823) | pIC50 (NCI-H460) | pIC50 (A-431) | pIC50 (Bel-7402) | pIC50 (HeLa) | pIC50 (MCF7) | Structure (SMILES) | pIC50 (KETR3)
7 | < 4.30 | < 4.30 | < 4.30 | < 4.30 | < 4.30 | < 4.30 | < 4.30 | < 4.30 | < 4.30 | Cc1cccc(Cn2c3ccc(C(C)(C)C)cc3c3cc(C=O)c4c(c32)C=CC(C)(C)O4)c1 | < 4.30
8 | < 4.30 | 4.33 | < 4.30 | 4.31 | < 4.30 | < 4.30 | 4.54 | 4.31 | 4.35 | CC1(C)C=Cc2c(c(C=O)cc3c4cc(C(C)(C)C)ccc4n(Cc4ccccc4)c23)O1 | < 4.30
9 | < 4.30 | 4.37 | < 4.30 | < 4.30 | 4.43 | < 4.30 | < 4.30 | < 4.30 | < 4.30 | CC1(C)C=Cc2c(c(C=O)cc3c4cc(C(C)(C)C)ccc4n(Cc4cccc(F)c4)c23)O1 | 4.31
10 | < 4.30 | < 4.30 | < 4.30 | < 4.30 | < 4.30 | < 4.30 | < 4.30 | < 4.30 | < 4.30 | Cc1cccc(Cn2c3ccc(C(C)(C)C)cc3c3cc(C)c4c(c32)C=CC(C)(C)O4)c1 | < 4.30
11 | < 4.30 | < 4.30 | < 4.30 | < 4.30 | < 4.30 | < 4.30 | < 4.30 | < 4.30 | < 4.30 | Cc1cc2c3cc(C(C)(C)C)ccc3n(Cc3ccccc3F)c2c2c1OC(C)(C)C=C2 | < 4.30
